Experimental data from US11725011B2, “Bicyclic urea kinase inhibitors and uses thereof” (The Broad Institute, Inc., priority 2016, dated 2023).

Columns and labels:
MAP3K4 = MAP3K4 (Homo sapiens (Human), UniProt Q9Y6R4); assay: KINOMEscan; type: binding; conditions: 1 uM
FLT3 (N841I) = FLT3 (N841I) (Homo sapiens (Human), UniProt P36888, N841I); assay: KINOMEscan; type: binding; conditions: 1 uM
STK39 = STK39 (Homo sapiens (Human), UniProt Q9UEW8); assay: KINOMEscan; type: binding; conditions: 1 uM
CAMK4 = CAMK4 (Homo sapiens (Human), UniProt Q16566); assay: KINOMEscan; type: binding; conditions: 1 uM
STK33 = STK33 (Homo sapiens (Human), UniProt Q9BYT3); assay: KINOMEscan; type: binding; conditions: 1 uM
Sequence of STK33 (Q9BYT3 whole entry): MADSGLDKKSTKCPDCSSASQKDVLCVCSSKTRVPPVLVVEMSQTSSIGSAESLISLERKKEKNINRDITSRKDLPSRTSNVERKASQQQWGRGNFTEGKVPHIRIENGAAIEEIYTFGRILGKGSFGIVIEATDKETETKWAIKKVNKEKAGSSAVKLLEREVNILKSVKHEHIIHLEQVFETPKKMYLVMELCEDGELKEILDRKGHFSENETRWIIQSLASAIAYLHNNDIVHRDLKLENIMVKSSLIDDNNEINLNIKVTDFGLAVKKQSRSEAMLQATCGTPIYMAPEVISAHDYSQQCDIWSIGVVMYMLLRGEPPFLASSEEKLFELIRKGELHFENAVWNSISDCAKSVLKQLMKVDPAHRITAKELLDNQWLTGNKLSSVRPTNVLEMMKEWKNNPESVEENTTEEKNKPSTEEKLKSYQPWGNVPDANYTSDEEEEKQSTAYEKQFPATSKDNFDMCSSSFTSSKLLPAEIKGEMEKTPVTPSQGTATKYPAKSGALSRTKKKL

DCAMKL1 = DCAMKL1 (Homo sapiens (Human), UniProt O15075); assay: KINOMEscan; type: binding; conditions: 1 uM
EGFR (E746-A750del) = EGFR (E746-A750del) (Homo sapiens (Human), UniProt P00533, DEL746-750); assay: KINOMEscan; type: binding; conditions: 1 uM
Sequence of EGFR (E746-A750del) (P00533 other isoform, or with tags, fused parts or gaps del E746-A750): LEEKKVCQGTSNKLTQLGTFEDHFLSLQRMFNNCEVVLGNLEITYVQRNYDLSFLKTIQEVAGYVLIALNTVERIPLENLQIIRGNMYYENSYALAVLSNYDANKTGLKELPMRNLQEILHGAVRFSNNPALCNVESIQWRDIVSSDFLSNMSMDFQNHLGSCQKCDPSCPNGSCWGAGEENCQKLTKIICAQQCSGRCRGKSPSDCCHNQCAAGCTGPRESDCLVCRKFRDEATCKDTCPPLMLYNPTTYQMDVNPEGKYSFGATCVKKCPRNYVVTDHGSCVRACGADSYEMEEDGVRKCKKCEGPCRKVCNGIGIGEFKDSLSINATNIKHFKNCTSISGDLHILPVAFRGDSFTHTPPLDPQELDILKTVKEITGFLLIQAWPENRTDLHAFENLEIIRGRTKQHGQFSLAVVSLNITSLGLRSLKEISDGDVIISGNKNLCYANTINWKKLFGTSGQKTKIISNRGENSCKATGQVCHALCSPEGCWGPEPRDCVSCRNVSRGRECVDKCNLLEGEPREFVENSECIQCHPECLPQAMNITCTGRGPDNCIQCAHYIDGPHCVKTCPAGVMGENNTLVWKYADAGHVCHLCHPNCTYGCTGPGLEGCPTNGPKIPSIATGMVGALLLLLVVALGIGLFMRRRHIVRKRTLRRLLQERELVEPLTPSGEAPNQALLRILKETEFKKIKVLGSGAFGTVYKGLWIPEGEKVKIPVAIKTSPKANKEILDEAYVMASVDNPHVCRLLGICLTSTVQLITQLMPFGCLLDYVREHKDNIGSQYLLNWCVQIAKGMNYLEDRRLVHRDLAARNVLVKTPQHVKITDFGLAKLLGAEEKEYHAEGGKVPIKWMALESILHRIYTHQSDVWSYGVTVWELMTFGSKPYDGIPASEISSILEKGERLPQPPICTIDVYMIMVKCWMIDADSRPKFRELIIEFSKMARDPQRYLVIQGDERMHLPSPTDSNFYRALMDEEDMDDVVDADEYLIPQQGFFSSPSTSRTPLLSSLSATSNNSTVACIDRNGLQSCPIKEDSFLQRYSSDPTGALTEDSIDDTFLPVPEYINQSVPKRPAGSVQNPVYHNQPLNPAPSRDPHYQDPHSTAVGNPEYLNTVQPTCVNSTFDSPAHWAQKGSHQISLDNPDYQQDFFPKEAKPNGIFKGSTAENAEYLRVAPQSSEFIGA

FER = FER (Homo sapiens (Human), UniProt P16591); assay: KINOMEscan; type: binding; conditions: 1 uM
PAK1 = PAK1 (Homo sapiens (Human), UniProt Q13153); assay: KINOMEscan; type: binding; conditions: 1 uM
ALK = ALK (Homo sapiens (Human), UniProt Q9UM73); assay: KINOMEscan; type: binding; conditions: 1 uM
[1] = target: RSK2 (Kin.Dom.1-N-terminal) (Homo sapiens (Human), UniProt P51812); assay: KINOMEscan; type: binding; conditions: 1 uM
[2] = target: ABL1 (H396P)-phosphorylated (Homo sapiens (Human), UniProt P00519, H396P); assay: KINOMEscan; type: binding; conditions: 1 uM
NLK = NLK (Homo sapiens (Human), UniProt Q9UBE8); assay: KINOMEscan; type: binding; conditions: 1 uM
PIP5K2B = PIP5K2B (Homo sapiens (Human), UniProt P78356); assay: KINOMEscan; type: binding; conditions: 1 uM
PIK3CG = PIK3CG (Homo sapiens (Human), UniProt P48736); assay: KINOMEscan; type: binding; conditions: 1 uM
[3] = qAC50 biological assay (Table 4)
BUB1 = BUB1 (Homo sapiens (Human), UniProt O43683); assay: KINOMEscan; type: binding; conditions: 1 uM
Sequence of BUB1 (O43683 whole entry): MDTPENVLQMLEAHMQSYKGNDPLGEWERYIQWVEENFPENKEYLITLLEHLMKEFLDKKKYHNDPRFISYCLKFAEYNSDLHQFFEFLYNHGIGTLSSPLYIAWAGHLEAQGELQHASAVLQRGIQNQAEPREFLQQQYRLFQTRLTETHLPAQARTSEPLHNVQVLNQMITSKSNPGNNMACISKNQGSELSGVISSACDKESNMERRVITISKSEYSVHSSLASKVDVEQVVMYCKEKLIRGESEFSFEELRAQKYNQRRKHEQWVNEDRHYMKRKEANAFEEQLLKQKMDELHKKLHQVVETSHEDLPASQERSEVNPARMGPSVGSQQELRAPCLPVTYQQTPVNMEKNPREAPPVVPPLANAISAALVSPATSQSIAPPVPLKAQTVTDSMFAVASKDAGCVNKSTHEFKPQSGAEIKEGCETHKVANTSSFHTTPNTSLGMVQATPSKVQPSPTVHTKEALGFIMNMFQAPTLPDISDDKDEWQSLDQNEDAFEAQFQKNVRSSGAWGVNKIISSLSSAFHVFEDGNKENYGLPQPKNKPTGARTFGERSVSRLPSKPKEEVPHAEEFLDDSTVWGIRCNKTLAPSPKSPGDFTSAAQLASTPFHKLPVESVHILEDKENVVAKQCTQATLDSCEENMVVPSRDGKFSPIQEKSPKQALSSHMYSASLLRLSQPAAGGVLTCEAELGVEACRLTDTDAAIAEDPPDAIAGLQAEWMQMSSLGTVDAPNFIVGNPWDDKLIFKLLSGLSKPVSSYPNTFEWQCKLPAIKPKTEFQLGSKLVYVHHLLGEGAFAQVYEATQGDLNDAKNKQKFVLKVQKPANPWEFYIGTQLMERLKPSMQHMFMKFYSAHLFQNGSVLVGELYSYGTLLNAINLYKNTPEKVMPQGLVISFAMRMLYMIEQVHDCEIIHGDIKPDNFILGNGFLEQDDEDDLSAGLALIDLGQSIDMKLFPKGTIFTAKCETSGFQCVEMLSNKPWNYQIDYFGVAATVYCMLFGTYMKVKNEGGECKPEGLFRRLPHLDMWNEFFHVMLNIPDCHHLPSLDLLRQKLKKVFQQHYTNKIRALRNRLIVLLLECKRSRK

PRKCE = PRKCE (Homo sapiens (Human), UniProt Q02156); assay: KINOMEscan; type: binding; conditions: 1 uM
RIPK2 = RIPK2 (Homo sapiens (Human), UniProt O43353); assay: KINOMEscan; type: binding; conditions: 1 uM
Sequence of RIPK2 (O43353 whole entry): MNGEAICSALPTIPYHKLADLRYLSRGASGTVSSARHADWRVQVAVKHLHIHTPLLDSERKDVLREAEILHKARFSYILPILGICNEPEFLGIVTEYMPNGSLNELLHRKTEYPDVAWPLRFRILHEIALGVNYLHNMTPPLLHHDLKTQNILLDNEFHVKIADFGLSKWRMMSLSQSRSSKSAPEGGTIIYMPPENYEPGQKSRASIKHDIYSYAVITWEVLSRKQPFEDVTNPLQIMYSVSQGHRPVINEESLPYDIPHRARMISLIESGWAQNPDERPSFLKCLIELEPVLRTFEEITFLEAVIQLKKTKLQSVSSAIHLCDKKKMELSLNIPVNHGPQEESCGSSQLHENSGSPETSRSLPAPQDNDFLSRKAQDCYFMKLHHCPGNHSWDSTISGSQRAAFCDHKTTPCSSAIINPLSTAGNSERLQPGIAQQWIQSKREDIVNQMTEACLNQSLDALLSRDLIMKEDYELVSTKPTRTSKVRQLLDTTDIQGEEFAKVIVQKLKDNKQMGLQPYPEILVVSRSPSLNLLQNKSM

[4] = target: RPS6KA4 (Kin.Dom.2-C-terminal) (Homo sapiens (Human), UniProt O75676); assay: KINOMEscan; type: binding; conditions: 1 uM
PRKX = PRKX (Homo sapiens (Human), UniProt P51817); assay: KINOMEscan; type: binding; conditions: 1 uM
ROS1 = ROS1 (Homo sapiens (Human), UniProt P08922); assay: KINOMEscan; type: binding; conditions: 1 uM
[5] = target: RSK2 (Kin.Dom.2-C-terminal) (Homo sapiens (Human), UniProt P51812); assay: KINOMEscan; type: binding; conditions: 1 uM
Sequence of RSK2 (Kin.Dom.2-C-terminal) (P51812 422-679): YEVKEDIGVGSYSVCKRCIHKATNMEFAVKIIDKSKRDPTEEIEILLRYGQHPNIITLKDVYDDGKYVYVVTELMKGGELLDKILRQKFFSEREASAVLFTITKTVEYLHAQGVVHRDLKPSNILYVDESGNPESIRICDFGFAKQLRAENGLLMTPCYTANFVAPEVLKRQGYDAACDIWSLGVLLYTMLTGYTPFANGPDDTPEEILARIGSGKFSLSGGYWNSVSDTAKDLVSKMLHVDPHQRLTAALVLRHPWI

IRAK4 = IRAK4 (Homo sapiens (Human), UniProt Q9NWZ3); assay: KINOMEscan; type: binding; conditions: 1 uM
Viability loss (Table 4) = type: cell-based
TESK1 = TESK1 (Homo sapiens (Human), UniProt Q15569); assay: KINOMEscan; type: binding; conditions: 1 uM
ROCK2 = ROCK2 (Homo sapiens (Human), UniProt O75116); assay: KINOMEscan; type: binding; conditions: 1 uM
Sequence of ROCK2 (O75116 whole entry): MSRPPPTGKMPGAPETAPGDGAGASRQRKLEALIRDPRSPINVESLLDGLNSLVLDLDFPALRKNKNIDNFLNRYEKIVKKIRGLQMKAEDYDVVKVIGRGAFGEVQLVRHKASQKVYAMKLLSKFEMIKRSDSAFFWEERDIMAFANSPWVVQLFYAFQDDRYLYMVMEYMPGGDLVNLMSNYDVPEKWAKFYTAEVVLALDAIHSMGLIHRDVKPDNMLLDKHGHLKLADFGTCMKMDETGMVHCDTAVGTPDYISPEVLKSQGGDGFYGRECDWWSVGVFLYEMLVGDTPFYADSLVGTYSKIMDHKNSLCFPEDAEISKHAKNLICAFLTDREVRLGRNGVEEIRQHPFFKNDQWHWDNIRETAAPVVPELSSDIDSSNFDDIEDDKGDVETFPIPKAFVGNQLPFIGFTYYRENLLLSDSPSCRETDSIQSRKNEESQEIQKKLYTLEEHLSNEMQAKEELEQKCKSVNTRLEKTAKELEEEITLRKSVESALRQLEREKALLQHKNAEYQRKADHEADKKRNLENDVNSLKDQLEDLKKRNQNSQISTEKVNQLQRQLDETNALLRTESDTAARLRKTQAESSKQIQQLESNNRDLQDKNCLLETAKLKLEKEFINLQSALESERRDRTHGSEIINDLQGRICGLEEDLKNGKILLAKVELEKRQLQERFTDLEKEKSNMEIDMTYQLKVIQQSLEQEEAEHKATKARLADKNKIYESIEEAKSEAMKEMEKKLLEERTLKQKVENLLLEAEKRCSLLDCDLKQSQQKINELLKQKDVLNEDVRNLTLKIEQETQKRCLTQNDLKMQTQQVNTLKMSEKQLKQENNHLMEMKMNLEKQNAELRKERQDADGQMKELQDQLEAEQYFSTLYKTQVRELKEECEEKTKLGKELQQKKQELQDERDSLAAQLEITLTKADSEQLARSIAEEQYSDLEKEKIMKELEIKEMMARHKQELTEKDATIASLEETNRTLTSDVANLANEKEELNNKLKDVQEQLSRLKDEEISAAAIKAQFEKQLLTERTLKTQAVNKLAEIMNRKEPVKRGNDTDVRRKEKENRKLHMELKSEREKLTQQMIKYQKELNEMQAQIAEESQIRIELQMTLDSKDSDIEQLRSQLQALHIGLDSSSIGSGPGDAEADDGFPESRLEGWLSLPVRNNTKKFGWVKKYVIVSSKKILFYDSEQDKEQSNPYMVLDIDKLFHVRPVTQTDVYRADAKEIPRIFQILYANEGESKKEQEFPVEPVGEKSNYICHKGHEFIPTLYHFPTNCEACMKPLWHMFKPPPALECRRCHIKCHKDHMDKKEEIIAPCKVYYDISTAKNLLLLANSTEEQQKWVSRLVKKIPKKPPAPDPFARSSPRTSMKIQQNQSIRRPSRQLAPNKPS

[6] = target: JAK2 (JH1domain-catalytic) (Homo sapiens (Human), UniProt O60674); assay: KINOMEscan; type: binding; conditions: 1 uM
TAOK1 = TAOK1 (Homo sapiens (Human), UniProt Q7L7X3); assay: KINOMEscan; type: binding; conditions: 1 uM
[7] = target: EGFR (L747-T751del, Sins) (Homo sapiens (Human), UniProt P00533, DEL747-751/INS746S); assay: KINOMEscan; type: binding; conditions: 1 uM
ICK = ICK (Homo sapiens (Human), UniProt Q9UPZ9); assay: KINOMEscan; type: binding; conditions: 1 uM
HIPK4 = HIPK4 (Homo sapiens (Human), UniProt Q8NE63); assay: KINOMEscan; type: binding; conditions: 1 uM
HCK = HCK (Homo sapiens (Human), UniProt P08631); assay: KINOMEscan; type: binding; conditions: 1 uM
CDKL1 = CDKL1 (Homo sapiens (Human), UniProt Q00532); assay: KINOMEscan; type: binding; conditions: 1 uM
MYO3A = MYO3A (Homo sapiens (Human), UniProt Q8NEV4); assay: KINOMEscan; type: binding; conditions: 1 uM
HPK1 = HPK1 (Homo sapiens (Human), UniProt Q92918); assay: KINOMEscan; type: binding; conditions: 1 uM
[8] = target: ABL1 (F317L)-phosphorylated (Homo sapiens (Human), UniProt P00519, F317L); assay: KINOMEscan; type: binding; conditions: 1 uM
ACVRL1 = ACVRL1 (Homo sapiens (Human), UniProt P37023); assay: KINOMEscan; type: binding; conditions: 1 uM
HIPK1 = HIPK1 (Homo sapiens (Human), UniProt Q86Z02); assay: KINOMEscan; type: binding; conditions: 1 uM
ADCK3 = ADCK3 (Homo sapiens (Human), UniProt Q8NI60); assay: KINOMEscan; type: binding; conditions: 1 uM

Compound: COc1ccc(N2C(=O)N(c3c(C)cccc3C)Cc3cnc(Nc4ccc(N5CCN(C)CC5)cc4)nc32)c(OC)c1 [HG-11-136-01]
- KINOMEscan MAP3K4 (MAP3K4): 16
- KINOMEscan FLT3 (N841I) (FLT3 (N841I)): 11
- KINOMEscan STK39 (STK39): 28
- KINOMEscan CAMK4 (CAMK4): 100
- KINOMEscan STK33 (STK33): 24
- KINOMEscan DCAMKL1 (DCAMKL1): 51
- KINOMEscan EGFR (E746-A750del) (EGFR (E746-A750del)): 1.8
- KINOMEscan FER (FER): 0.1
- KINOMEscan PAK1 (PAK1): 3.7
- KINOMEscan ALK (ALK): 1.6
- KINOMEscan RSK2 (Kin.Dom.1-N-terminal) [1]: 12
- KINOMEscan ABL1 (H396P)-phosphorylated [2]: 0
- KINOMEscan NLK (NLK): 7.6
- KINOMEscan PIP5K2B (PIP5K2B): 27
- KINOMEscan PIK3CG (PIK3CG): 77
- qAC50 [3]: 171 nM
- Data Mode ([3]; curve direction of qAC50 data): decreasing
- KINOMEscan BUB1 (BUB1): 100
- KINOMEscan PRKCE (PRKCE): 61
- KINOMEscan RIPK2 (RIPK2): 0.1
- KINOMEscan RPS6KA4 (Kin.Dom.2-C-terminal) [4]: 90
- KINOMEscan PRKX (PRKX): 100
- KINOMEscan ROS1 (ROS1): 63
- KINOMEscan RSK2 (Kin.Dom.2-C-terminal) [5]: 51
- KINOMEscan IRAK4 (IRAK4): 49
- Viability loss AC40 (Viability loss (Table 4)): 97 nM
- Viability loss data mode (Viability loss (Table 4)): decreasing
- KINOMEscan TESK1 (TESK1): 0
- KINOMEscan ROCK2 (ROCK2): 89
- KINOMEscan JAK2 (JH1domain-catalytic) [6]: 0.75
- KINOMEscan TAOK1 (TAOK1): 1
- KINOMEscan EGFR (L747-T751del, Sins) [7]: 0.3
- KINOMEscan ICK (ICK): 61
- KINOMEscan HIPK4 (HIPK4): 51
- KINOMEscan HCK (HCK): 0.05
- KINOMEscan CDKL1 (CDKL1): 84
- KINOMEscan MYO3A (MYO3A): 40
- KINOMEscan HPK1 (HPK1): 0.95
- KINOMEscan ABL1 (F317L)-phosphorylated [8]: 1.8
- KINOMEscan ACVRL1 (ACVRL1): 16
- KINOMEscan HIPK1 (HIPK1): 3.8
- KINOMEscan ADCK3 (ADCK3): 38
